The compounds below were run against ROCK2 (human) (UniProt O75116) (assay: Inhibition of ROCK2 Kinase Activity).
ROCK2 (human), sequence (O75116 whole entry, looked up): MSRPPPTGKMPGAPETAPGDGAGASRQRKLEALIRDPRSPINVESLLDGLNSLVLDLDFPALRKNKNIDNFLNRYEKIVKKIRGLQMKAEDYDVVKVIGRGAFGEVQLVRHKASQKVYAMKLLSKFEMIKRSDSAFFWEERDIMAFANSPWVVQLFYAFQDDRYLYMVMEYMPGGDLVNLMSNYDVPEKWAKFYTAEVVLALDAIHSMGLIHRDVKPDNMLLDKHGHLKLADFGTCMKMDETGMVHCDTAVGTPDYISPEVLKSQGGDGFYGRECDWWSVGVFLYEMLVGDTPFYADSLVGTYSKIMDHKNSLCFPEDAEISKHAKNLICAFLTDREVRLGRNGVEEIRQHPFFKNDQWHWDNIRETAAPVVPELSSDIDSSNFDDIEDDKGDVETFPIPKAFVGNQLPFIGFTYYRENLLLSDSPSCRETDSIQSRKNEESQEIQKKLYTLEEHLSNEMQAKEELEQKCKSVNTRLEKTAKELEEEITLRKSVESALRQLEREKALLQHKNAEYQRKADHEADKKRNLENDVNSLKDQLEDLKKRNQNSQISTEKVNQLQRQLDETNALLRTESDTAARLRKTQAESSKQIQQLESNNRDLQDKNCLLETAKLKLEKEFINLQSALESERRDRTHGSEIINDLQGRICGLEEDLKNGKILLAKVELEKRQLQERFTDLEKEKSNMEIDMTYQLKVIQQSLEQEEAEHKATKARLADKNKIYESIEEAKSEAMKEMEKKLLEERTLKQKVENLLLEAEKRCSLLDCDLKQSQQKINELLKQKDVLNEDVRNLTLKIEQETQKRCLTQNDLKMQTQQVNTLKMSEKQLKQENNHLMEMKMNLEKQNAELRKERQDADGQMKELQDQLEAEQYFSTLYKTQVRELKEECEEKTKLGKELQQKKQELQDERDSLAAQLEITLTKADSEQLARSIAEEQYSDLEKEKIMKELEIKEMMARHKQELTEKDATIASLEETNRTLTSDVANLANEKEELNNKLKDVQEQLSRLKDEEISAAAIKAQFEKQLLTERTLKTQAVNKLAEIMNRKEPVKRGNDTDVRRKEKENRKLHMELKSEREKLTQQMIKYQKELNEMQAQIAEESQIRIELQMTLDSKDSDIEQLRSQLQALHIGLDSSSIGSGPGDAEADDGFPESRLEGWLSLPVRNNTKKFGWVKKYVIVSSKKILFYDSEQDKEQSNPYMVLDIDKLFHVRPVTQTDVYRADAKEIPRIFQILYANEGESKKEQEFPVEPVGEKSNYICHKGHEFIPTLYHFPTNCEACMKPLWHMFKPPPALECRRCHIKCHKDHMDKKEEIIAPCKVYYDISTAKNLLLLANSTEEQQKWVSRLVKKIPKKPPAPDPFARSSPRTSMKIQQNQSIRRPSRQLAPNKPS

IC50 [µM]	SMILES
> 5	O=C(NCc1nc(-c2c[nH]c3ncccc23)n[nH]1)c1cc(F)cc(F)c1
> 5	O=C(NCc1nc(-c2c[nH]c3ncccc23)n[nH]1)c1cc(F)ccc1[N+](=O)[O-]
≤ 5	O=C(NCc1nc(-c2c[nH]c3ncccc23)cs1)c1cccs1
> 5	O=C(C=Cc1cccc(O)c1)NCc1nc(-c2c[nH]c3ncccc23)n[nH]1
> 5	Cc1cc(C(=O)NCc2nc(-c3ccncc3)n[nH]2)ccc1Br
> 5	O=C(NCc1nc(-c2ccncc2)n[nH]1)c1cccc(I)c1
> 5	O=C(NCc1nc(-c2c[nH]c3ncccc23)n[nH]1)c1ccc(Cl)c([N+](=O)[O-])c1
> 5	O=C(NCc1nc(-c2ccncc2)no1)c1cccs1
> 5	N#CCC(=O)NCc1nc(-c2c[nH]c3ncccc23)n[nH]1
> 5	O=C(NCc1nc(-c2c[nH]c3ncccc23)n[nH]1)C(F)(F)F
≤ 5	COc1cccc(C(=O)NCc2nc(-c3c[nH]c4ncccc34)cs2)c1
> 5	O=S(=O)(NCc1nc(-c2ccncc2)n[nH]1)c1ccc(OCc2ccccc2)cc1
> 5	CCCCc1ccc(C(=O)NCc2nc(-c3ccncc3)n[nH]2)cc1
> 5	O=C(NCc1nc(-c2c[nH]c3ncccc23)n[nH]1)c1ccccc1C(=O)c1ccc(O)cc1
> 5	O=C(CCc1cccc(Br)c1)NCc1nc(-c2ccncc2)n[nH]1
> 5	CC(C)(C)OC(=O)N1CC(O)CC1C(=O)NCc1nc(-c2c[nH]c3ncccc23)n[nH]1 (centres undefined)
> 5	O=C(NCc1nc(-c2ccncc2)n[nH]1)c1c(F)cccc1Cl
> 5	CCN(CC)c1ccc(C(=O)NCc2nc(-c3ccncc3)n[nH]2)cc1
> 5	COc1ccc(C(=O)NCc2nc(-c3c[nH]c4ncccc34)n[nH]2)c(OC)c1
> 5	O=C(NCc1nc(-c2c[nH]c3ncccc23)n[nH]1)c1cccc(I)c1
> 5	O=C(NCc1nc(-c2ccncc2)n[nH]1)c1cccc(F)c1
> 5	O=C(NCc1nc(-c2ccncc2)n[nH]1)c1cc(Cl)ccn1

IC50 [µM]	SMILES
> 5	Cc1cc(C)c(C(=O)NCc2nc(-c3c[nH]c4ncccc34)n[nH]2)c(C)c1
> 5	O=C(NCc1nc(-c2c[nH]c3ncccc23)n[nH]1)c1cc2ccccc2cc1O
> 5	O=C(NCc1nc(-c2ccncc2)n[nH]1)c1cccc2c1OCC2
> 5	COc1cc(C(=O)NCc2nc(-c3c[nH]c4ncccc34)n[nH]2)cc(OC)c1OC
> 5	O=C(NCc1nc(-c2c[nH]c3ncccc23)n[nH]1)c1cccc(O)c1
≤ 5	O=C(NCc1nc(-c2ccncc2)n[nH]1)c1ccc2ccccc2c1O
> 5	COc1ccc(Cl)cc1C(=O)NCc1nc(-c2c[nH]c3ncccc23)n[nH]1
> 5	Cc1ccc(O)c(C(=O)NCc2nc(-c3ccncc3)n[nH]2)c1
> 5	O=C(NCc1nc(-c2c[nH]c3ncccc23)n[nH]1)c1cc(Cl)ccc1Cl
> 5	CCCCOc1ccc(C(=O)NCc2nc(-c3ccncc3)n[nH]2)cc1
> 5	O=C(CCc1ccccc1Br)NCc1nc(-c2ccncc2)n[nH]1
> 5	Cn1nc(-c2ccncc2)nc1CNC(=O)c1cccs1
> 5	O=C(NCc1nc(-c2ccncc2)n[nH]1)C1CCCCC1
> 5	O=C(C=Cc1cccc(O)c1)NCc1nc(-c2ccncc2)n[nH]1
> 5	O=C(NCc1nc(-c2c[nH]c3ncccc23)n[nH]1)c1cccc(Br)n1
> 5	Cc1cccc(C(=O)NCc2nc(-c3c[nH]c4ncccc34)n[nH]2)c1O
> 5	Cc1ccc(C(=O)NCc2nc(-c3ccncc3)n[nH]2)cc1F
> 5	O=C(NCc1nc(-c2ccncc2)n[nH]1)c1cccc(Br)n1
> 5	COc1cc(OC)cc(C(=O)NCc2nc(-c3c[nH]c4ncccc34)n[nH]2)c1
> 5	O=Cc1ccccc1OCC(=O)NCc1nc(-c2ccncc2)n[nH]1
> 5	O=C(CCc1cccc(Br)c1)NCc1nc(-c2c[nH]c3ncccc23)n[nH]1
≤ 5	O=C(NCc1nc(-c2ccncc2)n[nH]1)c1ccc2cc(O)ccc2c1

IC50 [µM]	SMILES
> 5	N#Cc1cccc(C(=O)NCc2nc(-c3ccncc3)n[nH]2)c1
> 5	CC(C)Cc1ccc(C(C)C(=O)NCc2nc(-c3c[nH]c4ncccc34)n[nH]2)cc1 (centres undefined)
> 5	Cc1ccccc1CC(=O)NCc1nc(-c2c[nH]c3ncccc23)n[nH]1
> 5	O=C(NCc1nc(-c2c[nH]c3ncccc23)n[nH]1)c1ccc(F)cc1F
> 5	O=C(NCc1nc(-c2c[nH]c3ncccc23)n[nH]1)c1cscn1
> 5	Cc1ccc(C)c(C(=O)NCc2nc(-c3ccncc3)n[nH]2)c1
> 5	COc1cccc(OC)c1C(=O)NCc1nc(-c2c[nH]c3ncccc23)n[nH]1
> 5	O=C(Cc1c(F)cccc1F)NCc1nc(-c2ccncc2)n[nH]1
> 5	CCCCCc1ccc(C(=O)NCc2nc(-c3c[nH]c4ncccc34)n[nH]2)cc1
> 5	O=C(Cc1ccccc1CO)NCc1nc(-c2c[nH]c3ncccc23)n[nH]1
> 5	O=C(NCc1nc(-c2ccncc2)n[nH]1)c1ccc(I)cc1
> 5	O=C(NCc1nc(-c2c[nH]c3ncccc23)n[nH]1)c1ccc(I)cc1
> 5	O=C(NCc1nc(-c2c[nH]c3ncccc23)n[nH]1)c1cc(F)c(F)cc1Cl
> 5	COc1ccc(OC)c(C(=O)NCc2nc(-c3c[nH]c4ncccc34)n[nH]2)c1
≤ 5	O=C(NCc1nc(-c2ccncc2)n[nH]1)c1ccc(Oc2ccccc2)cc1
> 5	O=C(CCc1nc2ccccc2[nH]1)NCc1nc(-c2c[nH]c3ncccc23)n[nH]1
> 5	O=C(NCc1nc(-c2c[nH]c3ncccc23)n[nH]1)c1cccc(Cl)c1[N+](=O)[O-]
> 5	O=C(NCc1nc(-c2ccncc2)n[nH]1)C1CCCN1C(=O)OCc1ccccc1 (centres undefined)
> 5	CC(C)C(NC(=O)OC(C)(C)C)C(=O)NCc1nc(-c2ccncc2)n[nH]1 (centres undefined)
> 5	CC(C)(C)c1ccc(C(=O)NCc2nc(-c3c[nH]c4ncccc34)n[nH]2)cc1
≤ 5	COc1cccc(O)c1C(=O)NCc1nc(-c2ccncc2)n[nH]1
> 5	O=C(CCc1ccccc1O)NCc1nc(-c2ccncc2)n[nH]1

IC50 [µM]	SMILES
> 5	O=C(NCc1nc(-c2ccncc2)n[nH]1)C(Cl)(Cl)Cl
≤ 5	COC(=O)c1ccc(C(=O)NCc2nc(-c3ccncc3)n[nH]2)cc1
> 5	O=C(NCc1nc(-c2ccncc2)n[nH]1)c1ccc2c(c1)OCO2
≤ 5	O=C(NCc1nc(-c2c[nH]c3ncccc23)n[nH]1)c1cccs1
> 5	O=C(NCc1nc(-c2ccncc2)n[nH]1)C1CCc2ccccc2C1 (centres undefined)
> 5	CC(CC(=O)NCc1nc(-c2ccncc2)n[nH]1)CC(C)(C)C (centres undefined)
> 5	O=C(Cc1ccccc1O)NCc1nc(-c2ccncc2)n[nH]1
> 5	Cc1c(C(=O)NCc2nc(-c3c[nH]c4ncccc34)n[nH]2)oc2ccccc12
> 5	O=C(C=Cc1ccccc1Cl)NCc1nc(-c2ccncc2)n[nH]1
> 5	NC1CCN(C(=O)Cc2nc(-c3ccncc3)n[nH]2)C1 (centres undefined)
> 5	COc1ccc(OC)c(C(=O)NCc2nc(-c3ccncc3)n[nH]2)c1
> 5	O=C(NCc1nc(-c2ccncc2)n[nH]1)c1cccc(Cl)c1Cl
> 5	COc1ccc(Br)c(C(=O)NCc2nc(-c3c[nH]c4ncccc34)n[nH]2)c1
≤ 5	COc1ccc(C(=O)NCc2nc(-c3ccncc3)n[nH]2)c(O)c1
> 5	O=C(NCc1nc(-c2ccncc2)n[nH]1)c1cccc2ccccc12
> 5	O=C(NCc1nc(-c2ccncc2)n[nH]1)c1cc(Cl)ccc1Cl
> 5	O=Cc1ccc(C(=O)NCc2nc(-c3c[nH]c4ncccc34)n[nH]2)cc1
> 5	O=C(NCc1nc(-c2c[nH]c3ncccc23)n[nH]1)c1c2ccccc2cc2ccccc12
> 5	CC(C)(C)OC(=O)N1Cc2ccccc2CC1C(=O)NCc1nc(-c2ccncc2)n[nH]1 (centres undefined)
> 5	O=C(NCc1nc(-c2c[nH]c3ncccc23)n[nH]1)C1CCc2ccccc2C1 (centres undefined)
> 5	CC(C)CC(NC(=O)OC(C)(C)C)C(=O)NCc1nc(-c2c[nH]c3ncccc23)n[nH]1 (centres undefined)
> 5	O=C(CC1Cc2ccccc2C1)NCc1nc(-c2ccncc2)n[nH]1

IC50 [µM]	SMILES
> 5	O=C(Cc1cccc(O)c1)NCc1nc(-c2ccncc2)n[nH]1
> 5	COC(=O)c1ccc(C(=O)NCc2nc(-c3c[nH]c4ncccc34)n[nH]2)cc1
> 5	O=C(NCc1nc(-c2ccncc2)n[nH]1)c1ccccc1[N+](=O)[O-]
> 5	O=C(NCc1nc(-c2ccncc2)n[nH]1)C(O)CCl (centres undefined)
≤ 5	O=C(NCc1nc(-c2ccncc2)n[nH]1)c1ccsc1
> 5	O=C(NCc1nc(-c2c[nH]c3ncccc23)n[nH]1)c1ccccc1C(=O)c1ccc(F)cc1
≤ 5	O=C(NCc1nc(-c2c[nH]c3ncccc23)n[nH]1)c1ccc(O)cc1O
> 5	O=C(NCc1nc(-c2c[nH]c3ncccc23)n[nH]1)c1ccc([N+](=O)[O-])c(O)c1
> 5	N#Cc1ccc(C(=O)NCc2nc(-c3c[nH]c4ncccc34)n[nH]2)cc1
> 5	CC1=NN(c2ccc(C(=O)NCc3nc(-c4c[nH]c5ncccc45)n[nH]3)cc2)C(=O)C1
> 5	COc1ccc([N+](=O)[O-])c(C(=O)NCc2nc(-c3c[nH]c4ncccc34)n[nH]2)c1
> 5	CC(C)(C)OC(=O)N1Cc2ccccc2CC1C(=O)NCc1nc(-c2c[nH]c3ncccc23)n[nH]1 (centres undefined)
> 5	O=C(NCc1nc(-c2ccncc2)n[nH]1)c1cc(F)c(F)c(O)c1F
> 5	NC(=O)c1cc(-c2ccncc2)n[nH]1
≤ 5	O=C(NCc1nc(-c2ccncc2)n[nH]1)c1ccc(O)cc1
> 5	CCOc1ccccc1C(=O)NCc1nc(-c2ccncc2)n[nH]1
> 5	O=C(NCc1nc(-c2ccncc2)n[nH]1)c1ccc(F)cc1
> 5	O=C(NCc1c[nH]c(-c2ccncc2)n1)c1cccs1
> 5	O=C(NCc1nc(-c2c[nH]c3ncccc23)n[nH]1)c1cccc([N+](=O)[O-])c1
> 5	O=C(NCc1nc(-c2c[nH]c3ncccc23)n[nH]1)c1ccc2c(c1)OCO2
> 5	c1ccc2c(NCc3nc(-c4ccncc4)n[nH]3)n[nH]c2c1
